In ChEMBL document CHEMBL3877252, “Fluorescein hydrazones: A series of novel non-intercalative topoisomerase IIα catalytic inhibitors induce G1 arrest and apoptosis in breast and colon cancer cells” (Eur J Med Chem, 2017):
Values belong to the compound of their own block, whether it stands above or below them. Active and inactive are the calls of the source. No cut-off for these calls is given here.

Tests used:
[1] = Antiproliferative activity against human HCT15 cells measured after 72 hrs by CCK8 assay; format: functional, cell-based; settings: HCT-15, 72 h
[2] = target: T1, DNA topoisomerase 1 (Homo sapiens) (UniProt P11387); experiment: Inhibition of human topoisomerase-1 assessed as inhibition of relaxation of supercoiled pBR322 plasmid DNA at 100 uM measured after 1 hr by ethidium bromide staining based agarose gel electrophoresis relative to control
T1 sequence (whole entry): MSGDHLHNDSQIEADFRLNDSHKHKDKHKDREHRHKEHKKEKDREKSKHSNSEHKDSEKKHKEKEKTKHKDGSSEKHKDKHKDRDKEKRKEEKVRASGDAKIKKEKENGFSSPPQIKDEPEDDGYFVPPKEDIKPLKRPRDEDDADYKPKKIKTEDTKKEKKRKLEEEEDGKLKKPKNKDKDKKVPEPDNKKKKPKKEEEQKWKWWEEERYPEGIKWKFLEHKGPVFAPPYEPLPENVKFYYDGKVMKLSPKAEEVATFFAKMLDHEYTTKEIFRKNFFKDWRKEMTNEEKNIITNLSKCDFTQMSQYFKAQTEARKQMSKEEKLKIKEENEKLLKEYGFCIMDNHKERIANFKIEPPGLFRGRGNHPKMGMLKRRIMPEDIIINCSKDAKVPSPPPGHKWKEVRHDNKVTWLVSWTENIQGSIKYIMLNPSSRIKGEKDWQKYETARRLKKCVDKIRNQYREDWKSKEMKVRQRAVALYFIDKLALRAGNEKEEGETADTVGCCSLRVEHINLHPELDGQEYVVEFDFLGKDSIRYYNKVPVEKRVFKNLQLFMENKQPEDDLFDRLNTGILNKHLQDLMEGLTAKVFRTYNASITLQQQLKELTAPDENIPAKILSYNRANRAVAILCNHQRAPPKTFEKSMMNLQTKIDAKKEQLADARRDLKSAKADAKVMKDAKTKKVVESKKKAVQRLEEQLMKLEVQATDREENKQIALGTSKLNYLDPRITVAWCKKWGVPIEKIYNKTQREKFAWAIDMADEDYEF

[3] = Antiproliferative activity against human DU145 cells measured after 72 hrs by CCK8 assay; format: functional, cell-based; settings: DU-145, 72 h
[4] = Antiproliferative activity against human MCF7 cells measured after 72 hrs by CCK8 assay; format: functional, cell-based; settings: MCF7, 72 h
[5] = target: DNA topoisomerase 2-alpha (Homo sapiens) (UniProt P11388); experiment: Inhibition of human topoisomerase-2 alpha assessed as inhibition of relaxation of supercoiled pBR322 plasmid DNA at 20 uM measured after 1 hr by ethidium bromide staining based agarose gel electrophoresis relative to control
[6] = Antiproliferative activity against human T47D cells measured after 72 hrs by CCK8 assay; format: functional, cell-based
[7] = target: T1, DNA topoisomerase 1 (Homo sapiens); experiment: Inhibition of human topoisomerase-1 assessed as inhibition of relaxation of supercoiled pBR322 plasmid DNA at 20 uM measured after 1 hr by ethidium bromide staining based agarose gel electrophoresis relative to control
[8] = target: DNA topoisomerase 2-alpha (Homo sapiens) (UniProt P11388); experiment: Inhibition of human topoisomerase-2 alpha assessed as inhibition of relaxation of supercoiled pBR322 plasmid DNA at 100 uM measured after 1 hr by ethidium bromide staining based agarose gel electrophoresis relative to control
[9] = Cell cycle arrest in human T47D cells assessed as accumulation at G1 phase at 10 uM after 24 hrs by DAPI staining-based cell analyzer (reference value: 51%); format: functional
[10] = Cell cycle arrest in human T47D cells assessed as accumulation at G1 phase at 10 uM after 5 hrs by DAPI staining-based cell analyzer (reference value: 47 to 50%); format: functional
[11] = target: DNA topoisomerase 2-alpha (Homo sapiens) (UniProt P11388); experiment: Poison activity at topoisomerase-2 alpha in human T47D cells assessed as DNA damage by measuring DNA tail length at 5 uM measured after 24 hrs by alkaline comet assay; format: cell-based
T47D [12] = experiment: Induction of apoptosis in human T47D cells assessed as increase in cleaved PARP level measured after 24 hrs by Western blot analysis; format: functional, cell-based
[13] = Cell cycle arrest in human T47D cells assessed as increase in p27kip1 level measured after 24 hrs; format: functional, cell-based
[14] = Cell cycle arrest in human T47D cells assessed as accumulation at G2/M phase at 10 uM after 5 hrs by DAPI staining-based cell analyzer (reference value: 18 to 20%); format: functional
[15] = Cell cycle arrest in human T47D cells assessed as accumulation at G1 phase at 10 uM after 20 hrs by DAPI staining-based cell analyzer (reference value: 47 to 50%); format: functional
[16] = Cell cycle arrest in human T47D cells assessed as accumulation at S phase at 10 uM after 15 hrs by DAPI staining-based cell analyzer (reference value: 22%); format: functional
T47D [17] = experiment: Induction of apoptosis in human T47D cells assessed as increase in bax level measured after 24 hrs by Western blot analysis; format: functional, cell-based
[18] = Cell cycle arrest in human T47D cells assessed as accumulation at S phase at 10 uM after 24 hrs by DAPI staining-based cell analyzer (reference value: 26%); format: functional
T47D [19] = experiment: Induction of apoptosis in human T47D cells assessed as decrease in bcl-2 level measured after 24 hrs by Western blot analysis; format: functional, cell-based
[20] = Cell cycle arrest in human T47D cells assessed as accumulation at S phase at 3 uM after 24 hrs by DAPI staining-based cell analyzer (reference value: 26%); format: functional
[21] = Cell cycle arrest in human T47D cells assessed as accumulation at S phase at 10 uM after 5 hrs by DAPI staining-based cell analyzer (reference value: 22%); format: functional
[22] = Cell cycle arrest in human T47D cells assessed as accumulation at G2/M phase at 10 uM after 15 hrs by DAPI staining-based cell analyzer (reference value: 18 to 20%); format: functional
[23] = target: DNA topoisomerase 2-alpha (Homo sapiens) (UniProt P11388); experiment: Poison activity at topoisomerase-2 alpha in human T47D cells assessed as DNA damage by measuring DNA tail length at 10 uM measured after 24 hrs by alkaline comet assay; format: cell-based
[24] = Cell cycle arrest in human T47D cells assessed as accumulation at G2/M phase at 10 uM after 10 hrs by DAPI staining-based cell analyzer (reference value: 18 to 20%); format: functional
[25] = Cell cycle arrest in human T47D cells assessed as accumulation at S phase at 1 uM after 24 hrs by DAPI staining-based cell analyzer (reference value: 26%); format: functional
[26] = target: DNA topoisomerase 2-alpha (Homo sapiens) (UniProt P11388); experiment: Inhibition of topoisomerase-2 alpha catalytic activity in human T47D cells assessed as appearance of free protein band at 50 uM measured after 2 hrs by Western blot analysis; format: cell-based
[27] = Cell cycle arrest in human T47D cells assessed as accumulation at G1 phase at 10 uM by DAPI staining based cell analyzer; format: functional; settings: TDE = time-dependent effect
[28] = Cell cycle arrest in human T47D cells assessed as accumulation at G2/M phase at 3 uM after 24 hrs by DAPI staining-based cell analyzer (reference value: 15%); format: functional
[29] = Cell cycle arrest in human T47D cells assessed as decrease in cyclin D1 level at 10 uM; format: functional, cell-based; settings: TDE = time-dependent effect
[30] = Cell cycle arrest in human T47D cells assessed as accumulation at G1 phase at 10 uM after 10 hrs by DAPI staining-based cell analyzer (reference value: 47 to 50%); format: functional
[31] = Cell cycle arrest in human T47D cells assessed as accumulation at S phase at 10 uM after 20 hrs by DAPI staining-based cell analyzer (reference value: 22%); format: functional
[32] = Cell cycle arrest in human T47D cells assessed as decrease in cyclin D1 level measured after 24 hrs; format: functional, cell-based
[33] = Cell cycle arrest in human T47D cells assessed as accumulation at G2/M phase at 1 uM after 24 hrs by DAPI staining-based cell analyzer (reference value: 15%); format: functional
[34] = Cell cycle arrest in human T47D cells assessed as accumulation at G1 phase at 1 uM after 24 hrs by DAPI staining-based cell analyzer (reference value: 51%); format: functional
[35] = Cell cycle arrest in human T47D cells assessed as accumulation at G2/M phase at 10 uM after 20 hrs by DAPI staining-based cell analyzer (reference value: 18 to 20%); format: functional
[36] = Cell cycle arrest in human T47D cells assessed as accumulation at S phase at 10 uM after 10 hrs by DAPI staining-based cell analyzer (reference value: 22%); format: functional
[37] = Cell cycle arrest in human T47D cells assessed as accumulation at G1 phase at 3 uM after 24 hrs by DAPI staining-based cell analyzer (reference value: 51%); format: functional
[38] = Cell cycle arrest in human T47D cells assessed as increase in p27kip1 level at 10 uM; format: functional, cell-based; settings: TDE = time-dependent effect
[39] = Cell cycle arrest in human T47D cells assessed as accumulation at G1 phase at 10 uM after 15 hrs by DAPI staining-based cell analyzer (reference value: 47 to 50%); format: functional
[40] = Cell cycle arrest in human T47D cells assessed as accumulation at G2/M phase at 10 uM after 24 hrs by DAPI staining-based cell analyzer (reference value: 15%); format: functional

Chain of DNA topoisomerase 2-alpha (Homo sapiens) (P11388 whole entry): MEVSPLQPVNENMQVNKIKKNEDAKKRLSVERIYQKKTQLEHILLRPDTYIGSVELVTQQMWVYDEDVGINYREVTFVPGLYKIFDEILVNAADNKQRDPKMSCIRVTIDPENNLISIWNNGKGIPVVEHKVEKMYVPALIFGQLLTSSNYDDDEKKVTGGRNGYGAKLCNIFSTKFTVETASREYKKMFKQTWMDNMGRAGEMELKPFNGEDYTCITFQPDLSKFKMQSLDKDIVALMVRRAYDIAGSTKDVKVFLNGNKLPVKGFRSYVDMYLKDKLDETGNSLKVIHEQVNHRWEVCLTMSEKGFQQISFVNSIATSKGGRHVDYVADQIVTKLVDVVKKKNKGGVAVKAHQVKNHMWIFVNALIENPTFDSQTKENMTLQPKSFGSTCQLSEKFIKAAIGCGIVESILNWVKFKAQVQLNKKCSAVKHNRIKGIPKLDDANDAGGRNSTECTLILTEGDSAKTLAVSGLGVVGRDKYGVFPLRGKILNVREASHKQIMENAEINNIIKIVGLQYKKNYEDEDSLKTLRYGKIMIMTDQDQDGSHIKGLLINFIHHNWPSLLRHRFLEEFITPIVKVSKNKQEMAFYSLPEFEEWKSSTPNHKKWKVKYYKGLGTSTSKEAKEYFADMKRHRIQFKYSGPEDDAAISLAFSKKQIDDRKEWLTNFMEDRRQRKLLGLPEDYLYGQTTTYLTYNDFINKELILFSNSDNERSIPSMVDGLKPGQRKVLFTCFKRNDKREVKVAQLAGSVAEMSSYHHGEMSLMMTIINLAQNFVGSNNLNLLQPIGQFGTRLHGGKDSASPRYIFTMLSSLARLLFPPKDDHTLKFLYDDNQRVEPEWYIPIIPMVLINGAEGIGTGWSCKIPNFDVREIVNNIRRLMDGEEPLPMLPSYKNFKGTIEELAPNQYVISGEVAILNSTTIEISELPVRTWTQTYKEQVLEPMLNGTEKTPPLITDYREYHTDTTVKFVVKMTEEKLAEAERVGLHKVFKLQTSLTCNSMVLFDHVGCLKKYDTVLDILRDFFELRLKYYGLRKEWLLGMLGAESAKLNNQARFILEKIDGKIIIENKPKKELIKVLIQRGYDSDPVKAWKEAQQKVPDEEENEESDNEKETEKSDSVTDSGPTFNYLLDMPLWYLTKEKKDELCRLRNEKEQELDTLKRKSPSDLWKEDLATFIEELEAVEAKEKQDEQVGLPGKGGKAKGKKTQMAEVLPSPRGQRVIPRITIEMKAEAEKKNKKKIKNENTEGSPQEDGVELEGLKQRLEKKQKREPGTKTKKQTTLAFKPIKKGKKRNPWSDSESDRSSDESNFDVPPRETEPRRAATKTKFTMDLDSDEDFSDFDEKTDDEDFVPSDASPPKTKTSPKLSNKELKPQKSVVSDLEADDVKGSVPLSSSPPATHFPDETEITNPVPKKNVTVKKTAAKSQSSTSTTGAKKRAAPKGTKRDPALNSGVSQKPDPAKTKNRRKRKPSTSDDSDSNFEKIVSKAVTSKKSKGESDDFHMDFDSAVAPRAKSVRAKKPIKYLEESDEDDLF

Compound: CCOc1ccc2c(c1)Oc1cc(O)ccc1C21c2ccccc2C(=O)N1/N=C/c1ccc(OC)c(O)c1 (stereo not given)
- IC50 [1]: 0.29 µM
- inhibition [2]: 77.8%
- IC50 [3]: 1.93 µM
- IC50 [4]: 3.64 µM
- inhibition [5]: 2.7%
- IC50 [6]: 1.61 µM
- inhibition [7]: 4.2%
- inhibition [8]: 37.9%

Compound: CCOc1ccc2c(c1)Oc1cc(O)ccc1C21c2ccccc2C(=O)N1/N=C/c1ccc(O)cc1 (stereo not given)
- IC50 [1]: 0.03 µM
- inhibition [2]: 36.5%
- IC50 [3]: 1.06 µM
- IC50 [4]: 4.66 µM
- inhibition [5]: 3.3%
- IC50 [6]: 0.78 µM
- inhibition [7]: 0%
- inhibition [8]: 73.8%

Compound: CCOc1ccc2c(c1)Oc1cc(O)ccc1C21c2ccccc2C(=O)N1/N=C/c1cccc(O)c1 (stereo not given)
- Activity [9]: 64%
- IC50 [1]: 0.83 µM
- Activity [10]: 59%
- Activity [11]: 9.55 pixel
- Activity (T47D [12]): Dose-dependent effect
- Activity [13]: Dose-dependent effect
- Activity [14]: 12%
- Activity [15]: 65%
- Activity [16]: 21%
- Activity (T47D [17]): Dose-dependent effect
- Activity [18]: 20%
- Activity (T47D [19]): Dose-dependent effect
- Activity [20]: 22%
- Activity [21]: 21%
- Activity [22]: 12%
- Activity [23]: 11.5 pixel
- inhibition [2]: 0%
- IC50 [3]: 0.04 µM
- IC50 [4]: 2.23 µM
- Activity [24]: 12%
- Activity [25]: 24%
- inhibition [26]: Active
- inhibition [5]: 2.6%
- Activity [27]: Tde
- IC50 [6]: 0.35 µM
- Activity [28]: 12%
- Activity [29]: Tde
- Activity [30]: 60%
- Activity [31]: 15%
- Activity [32]: Dose-dependent effect
- Activity [33]: 13%
- inhibition [8]: 89.3%
- Activity [34]: 56%
- Activity [35]: 12%
- Activity [36]: 21%
- Activity [37]: 57%
- Activity [38]: Tde
- Activity [39]: 61%
- Activity [40]: 9%

The next lines start with results.

- inhibition [2]: 28.1%
- inhibition [5]: 3.3%
- inhibition [8]: 58.3%
Compound: CCOc1ccc2c(c1)Oc1cc(O)ccc1C21c2ccccc2C(=O)N1/N=C/c1ccccc1OC (stereo not given)
- IC50 [1]: 0.67 µM
- IC50 [3]: > 50 µM
- IC50 [4]: > 50 µM
- IC50 [6]: > 50 µM

- inhibition [2]: 90.5%
- inhibition [5]: 1.5%
- inhibition [7]: 36.4%
- inhibition [8]: 83.7%
Compound: CCOc1ccc2c(c1)Oc1cc(OC(=O)c3ccccc3Cl)ccc1C21c2ccccc2C(=O)N1/N=C/c1ccc(Cl)cc1 (stereo not given)
- IC50 [1]: 28.7 µM
- IC50 [3]: > 50 µM
- IC50 [4]: > 50 µM
- IC50 [6]: > 50 µM
